# Patent US5932568A, “6-methoxy-1H-benzotriazole-5-carboxamide derivatives and pharmaceutical compositions containing them” (priority 1994, dated 1999)
# Where a name gives a salt, the structure may show the parent alone.
# Columns and labels:
# [1] = system: dopamine D2 receptor; conditions: cited from earlier work
# [2] = system: apomorphine-induced vomiting; test: Inhibitory effect on apomorphine-induced vomiting; format: in vivo, dogs (Beagle); conditions: 2 h before s.c. apomorphine hydrochloride 0.3 mg/kg, emetic episodes 1 h
# Method: A group of 3-4 dogs (Beagle, 8-15 kg) was used for examining inhibitory effects of the test compounds on apomorphine-induced vomiting according to the method of Chen and Ensor [cf. J. Pharmacol. Exp. Ther., 98, 245-250 (1950)]. Test compounds, dissolved or suspended in a 0.5% tragacanth solution were orally administered two hours before the subcutaneous administration of apomorphine hydrochloride (0.3 mg/kg). Then, the emetic episodes were counted for one hour. The emetic episodes of the compound-treated group were compared with those of the corresponding control (non-dosed) group, and the percent inhibition was calculated.
# [3] = system: gastric emptying; test: Gastric emptying enhancing activity; format: in vivo, Male Wistar rats; conditions: 3 mg/kg oral, 60 min before test meal; increase from control
# Method: The test was carried out according to the method of Scarpignato et al. [cf. Arch. Int. Pharmacodyn., 246, 286-294 (1980)]. Male Wistar rats, weighing 130-150 g, were fasted for 18 hours before experimentation, and 1.5 ml of a test meal (phenol red 0.05% in a 1.5% aqueous methylcellulose solution) was orally given. Fifteen minutes after administration of the meal the stomach was removed and the amount of phenol red remaining in the stomach was measured. The test compounds, dissolved or suspended in a 0.5% tragacanth solution, were orally administered 60 minutes before administration of the test meal. The rate of gastric emptying was calculated according to the amount of phenol red remaining in the stomach, and the activity of the test compounds was expressed in terms of increase in the emptying rate from the control.
# [4] = system: gastric emptying delayed by cholecystokinin; test: Effect on gastric emptying delayed by cholecystokinin; format: in vivo, Male Wistar rats; set-up: key to Effect on gastric emptying delayed by cholecystokinin: +: slightly to moderately improved; ++: markedly improved; ±: no improvement; conditions: for Effect on gastric emptying delayed by cholecystokinin: cholecystokinin 3 μg/kg s.c.
# Method: (§1) The test was carried out according to the method of Scarpignato et al. [c f. Arch. int. Pharmacodyn., 246, 286-294 (1980)]. Male Wistar rats, weighing 130-150 g, were fasted for 18 hours before experimentation, and 1.5 ml of a test meal (phenol red 0.05% in a 1.5% aqueous methylcellulose solution) was orally given. Fifteen minutes after administration of the meal the stomach was removed and the amount of phenol red remaining in the stomach was measured. The test compounds, 10, 30 or 100 mg/kg, each dissolved or suspended in a 0.5% tragacanth solution, were orally administrated 60 minutes before administration of the test meal. Gastric emptying was delayed by subcutaneous administration of cholesystokinin 3 μg/kg or morphine 3 mg/kg 5 minutes before the administration of phenol red. The number of animals used was 5 to 10.
# [5] = system: gastric emptying delayed by morphine; test: Effect on gastric emptying delayed by morphine; format: in vivo, Male Wistar rats; set-up: key to Effect on gastric emptying delayed by morphine: +: slightly to moderately improved; ++: markedly improved; ±: no improvement; conditions: for Effect on gastric emptying delayed by morphine: morphine 3 mg/kg s.c.
# Method: as §1
# [6] = system: gastrointestinal motility; test: Effect on gastrointestinal motility in conscious dog; format: in vivo, beagle dogs; conditions: 3 and 10 mg/kg intragastric; fed state, conscious dogs
# Method: Four healthy beagle dogs per group of both sexes weighing 10 to 12 kg were anesthetized with an i.v. injection of pentobarbital sodium (Nembutal, 30 mg/kg b. wt.), and the abdominal cavity was opened under aseptic conditions. Extraluminal force transducers were sutured onto the seromuscular layer of the gastric antrum, 3 cm proximal to the pyloric ring, the duodenum, the jejunum, the […] terminal ileum in a manner to measure circular muscle contraction, following the method of Ito et al., [cf. Gastrointerol. Japan. 12, 275-283 (1977).] For intragastric (i.g.) administration of drugs, a Silastic tube (Fr. size 6.5) was inserted into the lumen of the gastric body, and the tube was fixed onto the adjacent serosa. The lead wires of these transducers and gastric tube were taken out of abdominal cavity and then brought out through a skin incision made between the scapulae. The outer ends of the lead wires were sutured onto the skin adjacent to the skin incision. After the operation, jacket protector was placed on the dog to protect the lead wires and the Silastic tube. The dogs were housed in individual experimental cages and given dog food at 10 a.m., and water was given freely. Test compounds at 3 and 10 mg/kg were suspended in 0.5% tragacanth solution and given i.g. through the indwelling Silastic tube.
# [7] = system: exploratory activity; test: Inhibitory effect on exploratory activity; format: in vivo, male mice (Std-ddy strain); conditions: oral, 2 h before test; 3 min counting; Probit
# Source text: A group of 5 male mice (Std-ddy strain, 20-25 g) was used. Two hours after oral administration of the test compounds in the form of 0.5% tragacanth solution or suspension, mice were placed individually in a test box (23×35×30 cm) on Animex activity meter (Farad Co.). Immediately thereafter, activity counting was started and lasted for three minutes. The mean counts of the compound-treated group were compared with those of the corresponding control (non-dosed) group, and the percent inhibition was calculated and the 50% inhibitory dose (ID50) was obtained according to the method of Probit.
# [8] = in vivo; conditions: mouse, oral, mice, 7 days observation
# [9] = system: gastrointestinal motility; test: Gastrointestinal motility improving activity (overall statement); conditions: in vivo
structure (smiles),measurement,setting,value
"CCN(CC)CCNC(=O)c1cc(Cl)c(N)cc1OC [metoclopramide, 4-amino-5-chloro-N-[2-(diethylamino)ethyl]-2-methoxybenzamide]",Dopamine D2 receptor antagonistic activity,[1],dopamine D2 receptor antagonistic activity
same,CNS depressant activity,[1]; derived from dopamine D2 receptor antagonistic activity,possesses CNS depressant activity
"CCN1CCCC[C@@H](NC(=O)c2cc3nn[nH]c3cc2OC)C1 [Compound 7b, (R)-N-(1-ethyl-1H-hexahydroazepin-3-yl)-6-methoxy-1H-benzotriazole-5-carboxamide.3/2 fumarate]",Inhibition of apomorphine-induced vomiting,[2]; 0.1 mg/kg oral,69%
same,Inhibition of apomorphine-induced vomiting,[2]; 1.0 mg/kg oral,100%
same,Increase in gastric emptying rate,[3],34%
same,Effect on gastric emptying delayed by cholecystokinin,[4]; 10 mg/kg oral,+
same,Effect on gastric emptying delayed by cholecystokinin,[4]; 30 mg/kg oral,++
same,Effect on gastric emptying delayed by cholecystokinin,[4]; 100 mg/kg oral,++
same,Gastric emptying delayed by cholecystokinin (in words),"[4]; compound 2: 30 or 100 mg/kg, 7b and Compound A: 10, 30 or 100 mg/kg",significantly improved gastric emptying delayed by cholecystokinin or morphine
same,Effect on gastric emptying delayed by morphine,[5]; 10 mg/kg oral,+
same,Effect on gastric emptying delayed by morphine,[5]; 30 mg/kg oral,++
same,Effect on gastric emptying delayed by morphine,[5]; 100 mg/kg oral,++
same,Gastric emptying delayed by morphine (in words),"[5]; 10, 30 or 100 mg/kg",significantly improved gastric emptying delayed by cholecystokinin or morphine
same,Interdigestive migrating like-contractions,[6],caused interdigestive migrating like-contractions in fed state in conscious dogs
same,ID50 (inhibition of exploratory activity),[7],> 100 mg/kg
same,LD50 at 168 h,[8],945 mg/kg
same,Gastrointestinal motility improving activity (in words),[9],especially excellent gastrointestinal motility improving activity
